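These data come from cells grown in 96-well plates and exposed to compound for 48 hours at five concentrations. At the GI50, growth is halved.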 Calls of active or inactive are those of the source. Cut-off read from the data, not from the text of the source: active = GI50 up to about 1.1 µM and inactive = higher.
Key:
Experiment in all cases: NCI-60 cell line screen, 48 h
CCRF-CEM = system: CCRF-CEM
HCT-15 = system: HCT-15
M14 = system: M14
NCI-H23 = system: NCI-H23
786-0 = system: 786-0
UACC-257 = system: UACC-257
TK-10 = system: TK-10
SNB-19 = system: SNB-19
HCT-116 = system: HCT-116
A498 = system: A498
SNB-78 = system: SNB-78
M19-MEL = system: M19-MEL
SN12C = system: SN12C
HT-29 = system: HT-29
MOLT-4 = system: MOLT-4
SF-268 = system: SF-268
KM12 = system: KM12
SR = system: SR
COLO 205 = system: COLO 205
XF498 = system: XF498
SF-539 = system: SF-539
SF-295 = system: SF-295
SW-620 = system: SW-620
HOP-92 = system: HOP-92
LOX IMVI = system: LOX IMVI
LXFL 529 = system: LXFL 529
OVCAR-3 = system: OVCAR-3
DMS-273 = system: DMS-273
HOP-18 = system: HOP-18
NCI-H460 = system: NCI-H460
UACC-62 = system: UACC-62
OVCAR-5 = system: OVCAR-5
DLD-1 = system: DLD-1
HOP-62 = system: HOP-62
IGROV-1 = system: IGROV-1
OVCAR-8 = system: OVCAR-8
Malme-3M = system: Malme-3M
OVCAR-4 = system: OVCAR-4
HL-60 = system: HL-60
A549 = system: A549
NCI-H522 = system: NCI-H522
SK-MEL-28 = system: SK-MEL-28
SK-MEL-5 = system: SK-MEL-5
K562 = system: K562
NCI-H226 = system: NCI-H226
CAKI-1 = system: CAKI-1
HCC 2998 = system: HCC 2998
RPMI-8226 = system: RPMI-8226
RXF 393 = system: RXF 393
U-251 = system: U-251
KM-20L2 = system: KM-20L2
SK-MEL-2 = system: SK-MEL-2
DMS-114 = system: DMS-114
ACHN = system: ACHN
EKVX = system: EKVX
SK-OV-3 = system: SK-OV-3
UO-31 = system: UO-31
SNB-75 = system: SNB-75

Measured: GI50

COC1OC(CBr)C(OC(=O)c2ccccc2)C(O)C1Br (stereo not given)
> 100 µM: HCT-15
inactive: CCRF-CEM > 100 µM | M14 > 100 µM | NCI-H23 > 100 µM | 786-0 > 100 µM | UACC-257 > 10 µM | TK-10 > 100 µM | SNB-19 > 100 µM | HCT-116 > 100 µM | A498 > 100 µM | SNB-78 > 100 µM | M19-MEL > 100 µM | SN12C > 100 µM | HT-29 > 100 µM | MOLT-4 > 100 µM | SF-268 > 100 µM | KM12 > 100 µM | SR > 100 µM | COLO 205 > 100 µM | XF498 > 10 µM | SF-539 > 100 µM | SF-295 > 100 µM | SW-620 > 100 µM | HOP-92 > 100 µM | LOX IMVI > 100 µM | LXFL 529 > 100 µM | OVCAR-3 > 100 µM | DMS-273 > 100 µM | HOP-18 > 100 µM | NCI-H460 > 100 µM | UACC-62 > 100 µM | OVCAR-5 > 100 µM | DLD-1 > 100 µM | HOP-62 > 100 µM | IGROV-1 > 10 µM | OVCAR-8 > 100 µM | Malme-3M > 100 µM | OVCAR-4 > 100 µM | HL-60 > 100 µM | A549 > 100 µM | NCI-H522 > 100 µM | SK-MEL-28 > 100 µM | SK-MEL-5 > 100 µM | K562 > 100 µM | NCI-H226 > 100 µM | CAKI-1 > 100 µM | HCC 2998 > 100 µM | RPMI-8226 > 100 µM | RXF 393 > 100 µM | U-251 > 100 µM | KM-20L2 > 100 µM

Cc1c(C(=O)CC(=O)C(=O)Nc2ccccc2C(F)(F)F)[n+]([O-])c2ccccc2[n+]1[O-]
16.8 µM: HCT-15
inactive: CCRF-CEM 18.6 µM | M14 15.2 µM | NCI-H23 17.4 µM | 786-0 33.6 µM | SK-MEL-2 19.8 µM | UACC-257 18.4 µM | DMS-114 11.5 µM | TK-10 46.8 µM | SNB-19 32.1 µM | HCT-116 14.7 µM | A498 > 100 µM | SNB-78 47.2 µM | SN12C 22.2 µM | ACHN 62.2 µM | HT-29 18.5 µM | EKVX 19.5 µM | SF-268 21.2 µM | SK-OV-3 25.5 µM | KM12 19.5 µM | SR 2.09 µM | COLO 205 12.3 µM | XF498 9.44 µM | SF-539 23.2 µM | SF-295 31.6 µM | SW-620 16.2 µM | HOP-92 16.2 µM | LOX IMVI 18.7 µM | LXFL 529 20.8 µM | OVCAR-3 2.63 µM | DMS-273 25.8 µM | HOP-18 2.2 µM | NCI-H460 21.3 µM | UACC-62 18 µM | OVCAR-5 26.8 µM | HOP-62 44 µM | IGROV-1 18 µM | UO-31 35.1 µM | OVCAR-8 18.2 µM | Malme-3M 20.6 µM | OVCAR-4 18.1 µM | HL-60 28.2 µM | A549 24.2 µM | NCI-H522 16.4 µM | SK-MEL-28 27.4 µM | SK-MEL-5 16.3 µM | K562 22 µM | NCI-H226 > 100 µM | CAKI-1 26.7 µM | HCC 2998 13.4 µM | RPMI-8226 4.69 µM | RXF 393 19.2 µM | U-251 19.6 µM | KM-20L2 33.7 µM

CCOC(=O)C(=O)/C=C(\C)Nc1c(NC2OCC(OC(C)=O)C(OC(C)=O)C2OC(C)=O)nc(SC)[nH]c1=O (stereo not given)
> 100 µM: HCT-15
inactive: CCRF-CEM > 100 µM | M14 > 100 µM | NCI-H23 > 100 µM | 786-0 > 100 µM | SK-MEL-2 > 100 µM | UACC-257 > 100 µM | DMS-114 > 100 µM | TK-10 > 100 µM | SNB-19 > 100 µM | HCT-116 > 100 µM | A498 > 100 µM | M19-MEL > 100 µM | SN12C > 100 µM | ACHN > 100 µM | HT-29 > 100 µM | MOLT-4 > 100 µM | EKVX > 100 µM | SF-268 > 100 µM | SK-OV-3 > 100 µM | KM12 > 100 µM | SR > 100 µM | COLO 205 > 100 µM | XF498 > 100 µM | SF-295 > 100 µM | SW-620 > 100 µM | HOP-92 > 100 µM | LOX IMVI > 100 µM | LXFL 529 > 100 µM | OVCAR-3 > 100 µM | DMS-273 > 100 µM | HOP-18 > 100 µM | NCI-H460 > 100 µM | UACC-62 > 100 µM | OVCAR-5 > 100 µM | DLD-1 > 100 µM | HOP-62 > 100 µM | IGROV-1 > 100 µM | UO-31 > 100 µM | OVCAR-8 > 100 µM | Malme-3M > 100 µM | OVCAR-4 > 100 µM | SNB-75 > 100 µM | HL-60 > 10 µM | A549 > 100 µM | NCI-H522 > 100 µM | SK-MEL-28 > 100 µM | SK-MEL-5 > 100 µM | K562 > 100 µM | CAKI-1 > 100 µM | HCC 2998 > 100 µM | RPMI-8226 > 100 µM | RXF 393 > 100 µM | U-251 > 100 µM | KM-20L2 > 100 µM

Reference: ChEMBL document CHEMBL1201862, “PubChem BioAssay data set” (2004)
